Results from patent US5614504A, “Method of making inosine monophosphate derivatives and immunopotentiating uses thereof” (The University of South Florida, priority 1995, dated 1997).

Columns and labels:
[1] = in vitro; assay type: in vitro ADME, Crotalus atrox; settings: rattlesnake, pH 7.3; 0.02 units 5'-nucleotidase, 37° C., 10 minutes; four experiments; read-out: Hydrolysis (%)
Description: (§1) Nucleotide samples (40-60 nmoles) were incubated at 37° C. for 10 minutes with 0.02 units 5'-nucleotidase in a total volume of 100 μl containing […] HEPES, pH 7.3 and […] MgCl2. […] Phosphate was determined by the absorbance of 820 nm. Blanks consisting of nucleotide but no enzyme were tested in parallel to correct for non-enzymatic hydrolysis.

[2] = system: mouse spleen lymphocytes (MSL); assay: Mouse spleen lymphocyte proliferation to Con A; assay type: cell-based; settings: 0.1, 1, 10, 100 μg/ml; Con A 0.5 μg/ml
Description: (§2) In vitro: Both human peripheral blood lymphocytes (HPBL) and mouse spleen lymphocytes (MSL) were employed. […] For HPBL transformation, PHA and PWM were used at 0.5 μg/ml. For MSL transformation, Con A was used at 0.5 μg/ml, phytohemagglutinin (PHA, Murex Diagnostics, Atlanta, Ga.) at 0.5 μg/ml and lipopolysaccharide endotoxin (LPS, Sigma, St. Louis, Mo.) at 10 μg/ml.
(§3) They were cultured in microwell plates at 1.5×10^6 cells/ml of minimal essential media (MEM, Gibco Labs, Grand Island, N.Y.) with 5% fetal calf serum (FCS, Hyclone Labs, Logan, Utah) and tested for their proliferative response to mitogens as measured by incorporation of (^3 H) tritiated thymidine (New England Nuclear, Wilmington Del., […]; 2.5 μCi/ml) during a terminal pulse followed by liquid scintillation spectrometry.

[3] = system: human peripheral blood lymphocytes (HPBL); assay: Response of normal HPBL to PHA (tritiated thymidine incorporation); assay type: cell-based; settings: 0.1-100 μg/ml; FIG. 1
Description: as §2, §3

[4] = system: spleen plaque antibody forming cells (PFC); assay: In vivo stimulation of PFC response to SRBC; parameters: species or system mice; settings: for effect on PFC response: 50 mg/kg of body weight ip with SRBC, PFC five days later; for dose of optimal stimulation of PFC response: intraperitoneal
Description: Five days later, suspensions of spleen cells were prepared and their viability was determined by trypan blue exclusion test. Cells were suspended at 3×10^6 /ml. 0.2 ml of spleen cell suspension was mixed with 0.8 ml of 0.7% agarose and 0.2 ml of freshly washed SRBC (at 6×10^5 /ml). The mixture was immediately poured into the plate and allowed to solidify. After 60 minutes of incubation at 37° C. in a humid atmosphere of 5% CO2 in the air, the plate was flooded with 1 ml of guinea-pig complement diluted 1:5 with Hank's balanced saline. Hemolytic plaques were counted with an inverted scope using 4× magnification.
Spleen plaque antibody forming cells (PFC) were measured at the end of the five days.

[5] = system: 5'-nucleotidase (from Crotalus atrox venom); assay: in vitro; assay type: in vitro ADME; settings: in words
Description: as §1

[6] = system: influenza virus; assay type: in vivo, NMRI mice; settings: Squalane alone
[7] = in man; cited from earlier work

Row | Molecule | metabolised at 10 min [1] [%] | proliferative responses of MSL to Con A [2] | relative activity on HPBL response to PHA [3] | effect on PFC response [4] | dose of optimal stimulation of PFC response [4] | resistance to hydrolysis by 5'-nucleotidase [5] | effect on survival after influenza challenge [6] | half-life [7]
1 | Nc1ncnc2c1ncn2[C@@H]1O[C@H](COP(=O)(O)O)[C@@H](O)[C@H]1O [Adenosine MP, adenosine-5'-monophosphate, reference compound] | 86 |  |  |  |  |  |  | 
2 | N=C(N)NCCC[C@H](NP(=O)(O)OC[C@H]1O[C@@H](n2cnc3c(=O)[nH]cnc32)[C@H](O)[C@@H]1O)C(=O)O [Arg-IMP, Arginine-5'-inosine-monophosphate] | 12 | stimulated the proliferative responses | more active | significantly stimulated | 50 mg/kg of body weight | moderate |  | 
3 | CCOP(=O)(O)OC[C@H]1O[C@@H](n2cnc3c(=O)[nH]cnc32)[C@H](O)[C@@H]1O [E-IMP, Ethyl-5'-inosine-monophosphate] | 2.9 | stimulated the proliferative responses | more active |  |  | extremely resistant |  | 
4 | CC(CCCC(C)(C)O)NP(=O)(O)OC[C@H]1O[C@@H](n2cnc3c(=O)[nH]cnc32)[C@H](O)[C@@H]1O (stereo partly shown) [Ha-IMP, (Heptamin-1-ol)-5'-inosine-monophosphate] | 76 | stimulated the proliferative responses | low | significantly stimulated | 50 mg/kg of body weight | mild |  | 
5 | CC(C)CCCC(C)CCCC(C)CCCCC(C)CCCC(C)CCCC(C)C (stereo not shown) [Squalane, reference compound] |  |  |  |  |  |  | no effect | 
6 | isoprinosine |  |  |  |  |  |  |  | less than four
